In this assay the target is Photoreceptor-specific nuclear receptor (Homo sapiens) (UniProt Q9Y5X4). Put plainly: concentration-response of NR2E3 activators – cell-based, luminescence, luciferase reporter, dose response (AID 624394). On the technique in general: A reporter such as luciferase makes a cellular process visible.

These results are taken from PubChem BioAssay AID624394 (The Scripps Research Institute Molecular Screening Center, 2012).

Photoreceptor-specific nuclear receptor (Homo sapiens), sequence (Q9Y5X4 whole entry, looked up): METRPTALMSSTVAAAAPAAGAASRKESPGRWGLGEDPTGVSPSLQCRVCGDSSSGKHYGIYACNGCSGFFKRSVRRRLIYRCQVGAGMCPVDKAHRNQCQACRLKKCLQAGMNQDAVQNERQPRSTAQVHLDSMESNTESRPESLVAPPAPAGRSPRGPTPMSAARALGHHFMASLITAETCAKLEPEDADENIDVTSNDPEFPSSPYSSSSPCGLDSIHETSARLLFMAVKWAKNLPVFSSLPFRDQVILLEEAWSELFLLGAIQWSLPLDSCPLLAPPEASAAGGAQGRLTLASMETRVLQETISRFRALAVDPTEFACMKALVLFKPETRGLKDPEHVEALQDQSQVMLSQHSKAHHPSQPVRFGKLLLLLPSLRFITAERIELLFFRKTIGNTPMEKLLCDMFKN

For orientation: IC50 means the concentration that gives 50% inhibition. Consider `CCOP(=O)(CCP(=O)(OCC)OCC)OCC.C[CH2][Sn]([Cl])([Cl])[CH2]C`, for which the IC50 was 478 nM.
